Broadly, the IC50 is the concentration that inhibits the measured activity by half.

Data on four compounds can be found in US8268998B2, “Pyrrolotriazine kinase inhibitors” (Bristol-Myers Squibb Company, priority 2006, dated 2012).

The target in one experiment is T1, TrkB (Homo sapiens, UniProt Q16620).
T1 construct: The kinase domain of the human TrkB receptor (amino acids 526-838); His; purchased Invitrogen; host or cells: insect cells
Kind of experiment: TrkB tyrosine kinase inhibition assay (recombinant enzyme, polyGluTyr phosphorylation, 33P). It counts as biochemical. The note with it: kinase domain of human TrkB (amino acids 526-838), substrate PGT 0.1 mg/ml, 30 uM ATP, 1 hour at 30° C. The method, then: The ability of compounds of the invention to inhibit tyrosine kinase activity of TrkB may be measured using a recombinant enzyme in an assay that measures the ability of compounds to inhibit the phosphorylation of the exogenous substrate, polyGluTyr (PGT, 4:1). The kinase domain of the human TrkB receptor (amino acids 526-838) is expressed in insect cells as a histidine (His)-fusion protein and is commercially available from Invitrogen™. The enzyme assay is performed in a 96-well plate. Test compounds are first dissolved in dimethylsulfoxide (DMSO) and then serially-diluted in a 96-well plate. The serially-diluted compounds are transferred to the 96-well assay plate so that the final concentration of DMSO in the enzyme assay is 1.64%. All assay components are diluted in phosphorylation buffer (20 mm MOPS, 10 mM MgCl2, 1 mM EDTA, 0.015% Brij-35, 0.1 mg/ml BSA, 0.0025% Beta-Mercaptoethanol). The recombinant enzyme is added to the assay plate containing test compound and the reaction is initiated with a substrate solution containing a final concentration of 0.1 mg/ml PGT, 30 uM ATP, and 0.008mCi/ml ^33P-gammaATP (3000 Ci/mmol). After a 1 hour incubation at 30° C., the reaction is terminated with 10% TCA and incubated at 4° C. for 1 hour. The reaction is filtered onto a Unifilter® GF/C™ filter plate that has been pre-soaked with 0.1M NaPyrophosphate. Microscint-20 is then added to the dried filter plate and the captured ^33P-phosphorylated PGT is quantitated on a microscintillation plate counter (TopCount•NXT™). Inhibition of the kinase enzymatic activity by the test compound is detected by a reduction in scintillation, and the concentration of compound that is required to inhibit the signal by 50% is reported as the IC50 value for the test compound.

In another experiment the target is T2, TrkA (Homo sapiens, UniProt P04629).
T2 construct: The kinase domain of the human TrkA receptor is expressed in Sf9 insect cells as a histidine (His)-fusion protein; His; made in house; host or cells: Sf9 insect cells (baculovirus)
Kind of experiment: TrkA tyrosine kinase inhibition assay (recombinant enzyme, polyGluTyr phosphorylation, 33P). It counts as biochemical. The note with it: kinase domain of human TrkA, substrate PGT 0.1 mg/ml, 30 uM ATP, 1 hour at 30° C. The text has this:
The ability of compounds of the invention to inhibit tyrosine kinase activity of TrkA may be measured using a recombinant enzyme in an assay that measures the ability of compounds to inhibit the phosphorylation of the exogenous substrate, polyGluTyr (PGT, 4:1). The kinase domain of the human TrkA receptor is expressed in Sf9 insect cells as a histidine (His)-fusion protein using a baculovirus expression system. The protein is purified from the lysates of these cells using an Ni-NTA affinity column. After the recombinant enzyme is purified, it is activated by incubation with cold ATP. The enzyme assay is performed in a 96-well plate. Test compounds are first dissolved in dimethylsulfoxide (DMSO) and then serially-diluted in a 96-well plate. The serially-diluted compounds are transferred to the 96-well assay plate so that the final concentration of DMSO in the enzyme assay is 1.64%. All assay components are diluted in phosphorylation buffer (20 mm MOPS, 10 mM MgCl2, 1 mM EDTA, 0.015% Brij-35, 0.1 mg/ml BSA, 0.0025% Beta-Mercaptoethanol). The recombinant enzyme is added to the assay plate containing test compound and the reaction is initiated with a substrate solution containing a final concentration of 0.1 mg/ml PGT, 30 uM ATP, and 0.008mCi/ml ^33P-gammaATP (3000Ci/mmol). After a 1 hour incubation at 30° C., the reaction is terminated with 10% TCA and incubated at 4° C. for 1 hour. The reaction is filtered onto a Unifilter® GF/C™ filter plate that has been presoaked with 0.1M NaPyrophosphate. Microscint-20 is then added to the dried filter plate and the captured ^33P-phosphorylated PGT is quantitated on a microscintillation plate counter (TopCount•NXT™). Inhibition of the kinase enzymatic activity by the test compound is detected by a reduction in scintillation, and the concentration of compound that is required to inhibit the signal by 50% is reported as the IC50 value for the test compound.

T1 sequence (Q16620 510-822): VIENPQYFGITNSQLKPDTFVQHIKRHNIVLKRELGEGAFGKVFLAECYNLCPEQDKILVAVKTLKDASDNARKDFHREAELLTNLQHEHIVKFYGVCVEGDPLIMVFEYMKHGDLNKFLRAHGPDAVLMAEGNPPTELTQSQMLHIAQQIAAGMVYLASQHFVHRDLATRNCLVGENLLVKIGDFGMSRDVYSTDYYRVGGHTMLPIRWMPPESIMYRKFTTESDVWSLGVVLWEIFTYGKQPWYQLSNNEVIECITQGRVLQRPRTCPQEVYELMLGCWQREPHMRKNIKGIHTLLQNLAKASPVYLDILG
T2 sequence (P04629 510-781 limits assumed): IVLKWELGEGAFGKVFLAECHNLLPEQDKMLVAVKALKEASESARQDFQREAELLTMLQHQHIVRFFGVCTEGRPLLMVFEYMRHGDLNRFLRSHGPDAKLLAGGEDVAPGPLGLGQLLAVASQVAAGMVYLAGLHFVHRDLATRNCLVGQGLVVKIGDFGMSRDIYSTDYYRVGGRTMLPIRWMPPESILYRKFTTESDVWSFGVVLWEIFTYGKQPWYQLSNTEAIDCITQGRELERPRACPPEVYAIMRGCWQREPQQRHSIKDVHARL

Consider `C[C@H](Nc1nc(Nc2cc(C3CC3)[nH]n2)nn2cccc12)c1ccc(F)cc1` [Example 1, N^2-(5-cyclopropyl-1H-pyrazol-3-yl)-N^4-((1S)-1-(4-fluorophenyl)ethyl)pyrrolo[2,1-f][1,2,4]triazine-2,4-diamine], for which the IC50 at TrkB is 0.8 nM; at TrkA, 0.3 nM.
The like results for `CCCC[C@H](C)Nc1nc(Nc2cc(C3CC3)[nH]n2)nn2cccc12` [Example 21, N^2-(5-cyclopropyl-1H-pyrazol-3-yl)-N^4-((1S)-1-methylpentyl)pyrrolo[2,1-ƒ][1,2,4]triazine-2,4-diamine] were, in that order, 2 nM and 0.5 nM.
The matching figures for `CC(C)[C@@H](CO)Nc1nc(Nc2cc(C3CC3)[nH]n2)nn2cccc12` [Example 24, (2S)-2-((2-((5-cyclopropyl-1H-pyrazol-3-yl)amino)pyrrolo[2,1-ƒ][1,2,4]triazin-4-yl)amino)-3-methyl-1-butanol]: 64 nM and 36 nM.
On to `C[C@H](Nc1nc(Nc2cc(C3CC3)[nH]n2)nn2cccc12)C1CCCCC1` [Example 32, N^4-((1S)-1-cyclohexylethyl)-N^2-(5-cyclopropyl-1H-pyrazol-3-yl)pyrrolo[2,1-ƒ][1,2,4]triazine-2,4-diamine], for which the IC50 on TrkB worked out at 3 nM; on TrkA it was 2 nM.
